Consider 33 molecules from patent US20060183676A1, “Treatment of mycobacterium tuberculosis with antisense oligonucleotides” (priority 2001, published 2006).

Values after ≈ are worked out from the molar mass of the structure shown. Like-named read-outs stand apart in the source and are kept apart here. In the oligonucleotide strings, read from the 5' end, every base follows the letter of its sugar. An asterisk marks phosphorothioate; unmarked linkages are phosphodiester. Other units and linkages are bracketed, terminal groups are in braces. A string of capitals states the bases alone. Bridge positions count the residues as written; N and C are the ends. Square brackets hold non-standard residues; d marks the D form. Peptide text beside a SMILES is read from it. {FL} = fluorescein label; Dab = NCC[C@H](N)C(=O)O; d = 2'-deoxy (DNA); m = 2'-O-methyl Bounds are passed on as bounds.

Data set [1] deals with M. tuberculosis Erdman strain. It is filed as cell-based.
In data set [2] the test system is M. tuberculosis Erdman strain. It is filed as cell-based. The conditions noted are these: 6 weeks, O.D.; for inhibition of M. tuberculosis in the presence of antibiotic (in words): 10 μM plus ethambutol 5 μg/ml; for M. tuberculosis growth in the absence of antibiotic (in words): 10 μM.
Data set [3] deals with M. tuberculosis. It is filed as cell-based. The settings on record: log reduction in CFU vs untreated control or MM-PS-ODN cultures; 10 μM, added once at start.
Data set [4] relates to poly-L-glutamate/glutamine in the cell wall of M. tuberculosis. The settings on record: 20 μM; Harth et al. 1999; cited from earlier work.
Data set [5] has as its system M. tuberculosis Erdman. The settings on record: Harth et al. 1999, cited from earlier work.
Data set [6] has as its system M. tuberculosis Erdman glutamine synthetase. The settings on record: 20 μM; Harth et al. 1999; cited from earlier work.
The subject of data set [7] is M. tuberculosis Erdman. It is filed as cell-based.
The test system of data set [8] is M. tuberculosis Erdman. Put plainly: microbe, parasite or virus in culture. The conditions noted are these: Mycobacterium tuberculosis.
Data set [9] deals with M. smegmatis 1-2c. Put plainly: microbe, parasite or virus in culture. The conditions noted are these: Mycolicibacterium smegmatis, 12C.
Data set [10] deals with M. tuberculosis Erdman.
Data set [11] concerns M. smegmatis 1-2c.

In the case of “5-GAACGCCGGGGTGTTGATGTCCCAGCCG (SEQ ID NO: 14) [ML10]”, the “inhibition of M. tuberculosis growth in the presence of ethambutol, added only once” value in [1] (10 μM plus ethambutol 5 μg/ml, 9 weeks) is listed as “slightly enhanced the inhibition”. The “M. tuberculosis growth relative to control, added only once at the start” value in data set [1] (10 μM, no antibiotic, 9 weeks, O.D.) is recorded as “slightly inhibited”. Also, the “M. tuberculosis growth relative to control, added weekly for 9 weeks” value in [1] (10 μM, no antibiotic, O.D.) is “inhibited”.
As for “5′-CACCTTCGCCACGATTGGAGCCCTCCA (SEQ ID NO: 13) (phosphorothioate, further chemistry not given here; listed as Mycobacterium tuberculosis) [Val 41, PS-ODN against nucleotides −15 to 12 of the groES gene]”, in [2], the “inhibition of M. tuberculosis in the presence of antibiotic (in words)” value (shortened to “inhibition of M. tuberculosis … (in words)”) is listed as “enhanced the inhibition” and the “M. tuberculosis growth in the absence of antibiotic (in words)” value (“M. tuberculosis growth in the absence” below) is “did not inhibit”.
In the same order, the values of “5′-CCATGTCTTCACCGCTTCATCCTG (SEQ ID NO: 10) [Val 26]” are “enhanced the inhibition” and “did not inhibit”.
Taken in the same sequence, the figures for “5′-CGCTTCATCCTGCCGTGTCGG (SEQ ID NO: 8) [Val 24]” were “enhanced the inhibition” and “did not inhibit”.
In the same order, the values of “5′-TGCCGCAGCCACGGCGACGGCCGTGGT (SEQ ID NO: 11) [Val 33]” are “enhanced the inhibition” and “inhibited”.
For “5′-TGCCGCAGCCACGGCGACGGCCGTGGTGTCCGAACC (SEQ ID NO: 12) [Val 34]”, in data set [2], the “inhibition of M. tuberculosis … (in words)” value was “enhanced the inhibition” and the “M. tuberculosis growth in the absence” value is “inhibited”.
With “5′-TGGCCATGTCTTCACCGCTTCATCCTG (SEQ ID NO: 9) [Val 25]”, the “M. tuberculosis growth in the absence” value in data set [2] is “did not inhibit”.
For “5′-TGGGGCTGGCCATGTCTTCAC-3′ (SEQ ID NO: 7) [Val 23]”, in data set [2], the “inhibition of M. tuberculosis … (in words)” value is reported as “enhanced the inhibition” and the “M. tuberculosis growth in the absence” value is “inhibited”.
As to “5′>2′OMeACGAAC-CCTGTCAACAAG-2′OMeCTGCAT (antisense ACGAACCCTGTCAACAAGCTGCAT; sugars from the 5' end m6 d12 m6, all phosphorothioate, T or U not given here) [fbpA (SEQ ID NO: 26), antisense PS-ODN against fbpA with O-methyl groups at the 5′ and 3′ ends]”, in [3], the “log Reduction” value was found to be 0.4 log.
On the same count and under the same terms, the same measure for “5′>2′OMeATTCTT-TCGGCTCACGTC-2′OMeTGTCAT [fbpB (SEQ ID NO: 25)]”: 0.4 log.
Same read-out and setting: the result for “5′>AACGAATTCCTTCTGTCGGTCCAT (dA*dA*dC*dG*dA*dA*dT*dT*dC*dC*dT*dT*dC*dT*dG*dT*dC*dG*dG*dT*dC*dC*dA*dT; antisense) [glnA2]” reads 0.05-0.1 log; that for “5′>AACGGGAGTGACACGTGATTCCAT (dA*dA*dC*dG*dG*dG*dA*dG*dT*dG*dA*dC*dA*dC*dG*dT*dG*dA*dT*dT*dC*dC*dA*dT) [mas]”, 0.35 log; that for “5′>AATCCGGCTGAAAGCCGTTCGCATCAC (dA*dA*dT*dC*dC*dG*dG*dC*dT*dG*dA*dA*dA*dG*dC*dC*dG*dT*dT*dC*dG*dC*dA*dT*dC*dA*dC; antisense) [ppsB]”, 0 log.
On the same count and under the same terms, the same measure for “5′>AATGATTTCTTCCTGAGTGACAGGCAC (dA*dA*dT*dG*dA*dT*dT*dT*dC*dT*dT*dC*dC*dT*dG*dA*dG*dT*dG*dA*dC*dA*dG*dG*dC*dA*dC; antisense) [acpM]”: 0 log; for “5′>ACGAACCCTGTCAACAAGCTGCAT-GGGGG (antisense dA*dC*dG*dA*dA*dC*dC*dC*dT*dG*dT*dC*dA*dA*dC*dA*dA*dG*dC*dT*dG*dC*dA*dT*dG*dG*dG*dG*dG) [fbpA (SEQ ID NO: 27), antisense PS-ODN against fbpA with five Gs attached to the 3′ end]”: 0.8 log; for “5′>CAAGATGGACACCGTCACCGCTAC (dC*dA*dA*dG*dA*dT*dG*dG*dA*dC*dA*dC*dC*dG*dT*dC*dA*dC*dC*dG*dC*dT*dA*dC; antisense) [murX]”: 0 log.
As for “5′>CACATCCAGCGACTTGGCCAGCTC (dC*dA*dC*dA*dT*dC*dC*dA*dG*dC*dG*dA*dC*dT*dT*dG*dG*dC*dC*dA*dG*dC*dT*dC; antisense) [rfbE]”, the “log Reduction” value in data set [3] amounted to 0 log.
For the molecule “5′>CGCCGCGCGCTCCGCCAGACTTGTCAT (dC*dG*dC*dC*dG*dC*dG*dC*dG*dC*dT*dC*dC*dG*dC*dC*dA*dG*dA*dC*dT*dT*dG*dT*dC*dA*dT; antisense) [ppsD]”, the “log Reduction” value in [3] was 0 log.
Still for that read-out and setting: the same measure for “5′>CGCGATCGCGTTCTCGGGGATGCTCAC (dC*dG*dC*dG*dA*dT*dC*dG*dC*dG*dT*dT*dC*dT*dC*dG*dG*dG*dG*dA*dT*dG*dC*dT*dC*dA*dC; antisense) [ppsE]”: 0 log.
With “5′>CGGCCCTGCATGTCGGTGAACGCG (dC*dG*dG*dC*dC*dC*dT*dG*dC*dA*dT*dG*dT*dC*dG*dG*dT*dG*dA*dA*dC*dG*dC*dG; antisense) [glnA4]”, the “log Reduction” value in data set [3] worked out at 0 log.
As to “5′>FL-GCCGGGGTGTTGATATCCCAGCCG (5' {FL}, sugars by position and backbone not given here) [fbpB (SEQ ID NO: 24), antisense PS-ODN against fbpB (30 kDa protein gene) with fluorescein attached to the 5′ end]”, the “log Reduction” value in data set [3] is 0.6 log.
In the case of “5′>GACATTCTCCCAGAACCGTTTCAC (chemistry not given here) [air, antisense PS-ODN against the alr gene (alanine racemase) transcript]”, the “log Reduction” value in data set [3] is recorded as 0.2 log.
The same measure, in the same setting: the result for “5′>GCACGGTCTTGGCCTGGGTGAGTC (dG*dC*dA*dC*dG*dG*dT*dC*dT*dT*dG*dG*dC*dC*dT*dG*dG*dG*dT*dG*dA*dG*dT*dC; antisense) [glnA3]” reads 0 log.
Still for that read-out and setting: the result for “5′>GCCATTAGCGGTGGAAGGCTGACTCAC (dG*dC*dC*dA*dT*dT*dA*dG*dC*dG*dG*dT*dG*dG*dA*dA*dG*dG*dC*dT*dG*dA*dC*dT*dC*dA*dC; antisense) [kasA]” reads 0 log; that for “5′>GCTCTGAAACGTGCCGGTCTGAAC (dG*dC*dT*dC*dT*dG*dA*dA*dA*dC*dG*dT*dG*dC*dC*dG*dG*dT*dC*dT*dG*dA*dA*dC; antisense) [fadD26]”, 0.65 log; that for “5′>GGACACCTCGAGACCGTACTGCAC (dG*dG*dA*dC*dA*dC*dC*dT*dC*dG*dA*dG*dA*dC*dC*dG*dT*dA*dC*dT*dG*dC*dA*dC) [rfe]”, 0.25 log.
The same measure, in the same setting: the same measure for “5′>TC(c->g)GCGATCTGGTGTCGCTGCGGTCAT (phosphorothioate, 5' TC(c->g) prefix, further chemistry not given here) [ppsC]”: 0 log.
“5′>TTCACCACTGATGCTTCCCGTCAT (dT*dT*dC*dA*dC*dC*dA*dC*dT*dG*dA*dT*dG*dC*dT*dT*dC*dC*dC*dG*dT*dC*dA*dT; antisense) [ppsA]”: the “log Reduction” value in data set [3] stood at 0 log.
On the same count and under the same terms, the result for “5′>TTTGCCGTCCAGCAGTCCTGTCAT (chemistry not given here) [lnhA]” reads 0.05 log.
With `CS(=N)(=O)CC[C@H](N)C(=O)O` (stereo partly drawn) [L-methionine-S-sulfoximine], the “reduction of the amount of the poly-L-glutamate/glutamine cell wall structure” value in data set [4] is 93%. In [5] (2 μM), the “inhibition of bacterial growth” value is listed as 1.5-2 log units. Further, the “reduction of bacterial growth” value in [5] (20 μM) is recorded as no less than 2.5 log units. In [6], the “reduction of extracellular glutamine synthetase activity” value is listed as 80%.
In the case of `NCC[C@H](O)C(=O)N[C@@H]1C[C@H](N)[C@@H](O[C@H]2O[C@H](CN)[C@@H](O)[C@H](O)[C@H]2O)[C@H](O)[C@H]1O[C@H]1O[C@H](CO)[C@@H](O)[C@H](N)[C@H]1O` [amikacin, reference compound], the “antibacterial effect of free antibiotic (in words)” value is recorded as “bacteriostatic” in data set [7] (1 μM) and “strongly bactericidal” in data set [7] (5.8 μg per ml (10 μM)).
Regarding `CC[C@@H](CO)NCCN[C@@H](CC)CO` [ethambutol], the MIC is roughly 5 µg/mL (≈ 24.5 µM) in data set [8] and roughly 10 µg/mL (≈ 48.9 µM) in data set [9].
Take `CC(C)C[C@@H]1NC(=O)[C@@H](Cc2ccccc2)NC(=O)[C@H](CCN)NC(=O)[C@@H](NC(=O)[C@H](CCN)NC(=O)[C@@H](N)[C@@H](C)O)CCNC(=O)[C@H]([C@@H](C)O)NC(=O)[C@H](CCN)NC(=O)[C@H](CCN)NC1=O` [polymyxin B nonapeptide] (H-T[Dab][Dab][Dab][dF]L[Dab][Dab]T; lactam 3-C; N-terminus assumed): the MIC in [10] and in data set [11] was roughly 5 µg/mL (≈ 5.19 µM) in each case.
